From US8148372B2 (AstraZeneca AB, priority 2008, dated 2012)
In brackets after ≈: the same amount, converted by molar mass.

How the values were obtained:
human mGluR2 = molecular target: T1, human mGluR2 (Homo sapiens, UniProt Q14416); test: [35S]-GTPγS binding assay, membranes from CHO cells stably expressing human mGluR2; type: biochemical; conditions: for Emax: 0.5 h, Emax relative to the maximum glutamate effect, 1 μM glutamate, read-out: Hu GTPgS Median Top Effect; for EC50: allosteric activator activity in presence of 1 μM glutamate, CHO membranes, human mGluR2, read-out: Hu GTPgS EC50
T1 construct: expressed in transfected cells; host or cells: CHO cells, stably transfected; membranes
T1 sequence (Q14416 19-872): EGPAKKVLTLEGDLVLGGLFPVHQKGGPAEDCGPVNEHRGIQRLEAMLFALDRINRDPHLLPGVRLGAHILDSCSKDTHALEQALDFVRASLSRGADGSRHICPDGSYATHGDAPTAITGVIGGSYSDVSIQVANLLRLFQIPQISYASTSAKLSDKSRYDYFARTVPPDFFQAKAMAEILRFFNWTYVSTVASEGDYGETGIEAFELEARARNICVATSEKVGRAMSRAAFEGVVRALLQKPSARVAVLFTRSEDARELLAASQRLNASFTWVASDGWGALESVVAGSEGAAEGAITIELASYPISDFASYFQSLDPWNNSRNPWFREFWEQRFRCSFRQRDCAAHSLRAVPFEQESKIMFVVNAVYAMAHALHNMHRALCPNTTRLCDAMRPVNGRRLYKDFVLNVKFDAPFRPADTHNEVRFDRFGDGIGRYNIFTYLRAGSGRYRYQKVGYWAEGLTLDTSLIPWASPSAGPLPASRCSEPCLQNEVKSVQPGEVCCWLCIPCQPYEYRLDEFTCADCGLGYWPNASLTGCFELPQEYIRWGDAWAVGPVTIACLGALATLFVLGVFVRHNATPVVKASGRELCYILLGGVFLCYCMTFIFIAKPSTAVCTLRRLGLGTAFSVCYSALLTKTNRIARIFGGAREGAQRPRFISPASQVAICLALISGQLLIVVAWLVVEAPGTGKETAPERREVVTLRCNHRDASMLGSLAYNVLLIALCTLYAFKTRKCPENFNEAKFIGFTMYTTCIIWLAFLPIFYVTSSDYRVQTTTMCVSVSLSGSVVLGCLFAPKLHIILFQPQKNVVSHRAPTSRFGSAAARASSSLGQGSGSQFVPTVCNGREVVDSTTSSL
Method: A [^35S]-GTPγS binding assay was used to functionally assay mGluR2 receptor activation. The allosteric activator activity of compounds at the human mGluR2 receptor were measured using a [^35S]-GTPγS binding assay with membranes prepared from CHO cells that stably express the human mGluR2. The assay is based upon the principle that agonists bind to G-protein coupled receptors to stimulate GDP-GTP exchange at the G-protein. Since [^35S]-GTPγS is a non-hydrolyzable GTP analog, it can be used to provide an index of GDP-GTP exchange and, thus, receptor activation. The GTPγS binding assay therefore provides a quantitative measure of receptor activation.
Membranes were prepared from CHO cells stably transfected with human mGluR2. Membranes (30 μg protein) were incubated with test compound (3 nM to 300 μM) for 15 minutes at room temperature prior to the addition of 1 μM glutamate, and incubated for 30 min at 30° C. in 500 μl assay buffer (20 mM HEPES, 100 mM NaCl, 10 mM MgCl2), containing 30 μM GDP and 0.1 nM [^35S]-GTPγS (1250 Ci/mmol). Reactions were carried out in triplicate in 2 ml polypropylene 96-well plates. Reactions were terminated by vacuum filtration using a Packard 96-well harvester and Unifilter-96, GF/B filter microplates. The filter plates were washed 4×1.5 ml with ice-cold wash buffer (10 mM sodium phosphate buffer, pH 7.4). The filter plates were dried and 35 μl of scintillation fluid (Microscint 20) was added to each well. The amount of radioactivity bound was determined by counting plates on the Packard TopCount. Data was analyzed using GraphPad Prism, and EC50 and Emax values (relative to the maximum glutamate effect) were calculated using non-linear regression.

hERG ion channel = hERG ion channel (Homo sapiens, UniProt Q12809); test: hERG activity (process of Bridgland-Taylor et al.); type: cell-based
Chain of hERG ion channel (Q12809 whole entry): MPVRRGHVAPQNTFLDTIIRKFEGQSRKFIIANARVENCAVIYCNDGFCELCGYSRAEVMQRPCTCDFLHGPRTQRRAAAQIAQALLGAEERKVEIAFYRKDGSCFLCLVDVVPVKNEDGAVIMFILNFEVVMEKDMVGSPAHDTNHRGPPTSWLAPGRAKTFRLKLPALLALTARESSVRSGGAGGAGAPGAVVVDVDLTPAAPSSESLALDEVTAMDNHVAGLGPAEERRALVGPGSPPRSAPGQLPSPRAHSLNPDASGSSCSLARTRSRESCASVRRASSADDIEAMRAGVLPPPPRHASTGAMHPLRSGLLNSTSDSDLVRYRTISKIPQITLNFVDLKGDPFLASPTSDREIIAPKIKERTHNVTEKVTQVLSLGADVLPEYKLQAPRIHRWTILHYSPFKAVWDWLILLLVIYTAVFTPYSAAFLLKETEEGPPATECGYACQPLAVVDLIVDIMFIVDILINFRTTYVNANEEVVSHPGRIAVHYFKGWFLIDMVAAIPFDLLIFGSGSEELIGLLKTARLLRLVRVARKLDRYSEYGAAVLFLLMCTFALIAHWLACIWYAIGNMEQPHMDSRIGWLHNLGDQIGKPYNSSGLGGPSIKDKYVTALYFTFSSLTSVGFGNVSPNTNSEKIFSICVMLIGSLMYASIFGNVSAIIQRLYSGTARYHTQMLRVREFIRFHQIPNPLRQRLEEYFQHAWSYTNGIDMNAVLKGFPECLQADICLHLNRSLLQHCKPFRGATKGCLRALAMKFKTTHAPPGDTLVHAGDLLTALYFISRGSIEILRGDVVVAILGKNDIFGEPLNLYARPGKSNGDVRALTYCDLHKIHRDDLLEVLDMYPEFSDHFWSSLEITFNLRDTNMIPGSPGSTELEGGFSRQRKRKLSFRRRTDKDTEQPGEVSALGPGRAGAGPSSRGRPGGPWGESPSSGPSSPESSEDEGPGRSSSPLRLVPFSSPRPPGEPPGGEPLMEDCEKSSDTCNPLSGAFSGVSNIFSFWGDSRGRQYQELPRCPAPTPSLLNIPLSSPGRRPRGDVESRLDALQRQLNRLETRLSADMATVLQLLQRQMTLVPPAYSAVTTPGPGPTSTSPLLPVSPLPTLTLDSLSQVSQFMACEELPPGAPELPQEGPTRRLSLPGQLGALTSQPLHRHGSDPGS
Method: hERG activity was assessed using the process described by Bridgland-Taylor, M. H., et al, J. Pharm. Tox. Methods 54 (2006) 189-199.

[1] = Solubility in pH 7.4 phosphate buffer; type: physicochemical; conditions: aqueous buffer, thermodynamic from solid, equilibration 24 h at 25° C., HPLC-UV and LC-MSMS
Method: Solubility was determined in pH 7.4 phosphate buffer after equilibration for 24 h at 25° C. and HPLC-UV and LC-MSMS were used for quantitation.

Structure (SMILES) | Emax (human mGluR2) | EC50 (human mGluR2) | solubility at 24 h [1] | melting point | IC50 (hERG ion channel)
CNC(=O)c1cc(-c2cc(C)c3c(c2)CN([C@@H](C)C2CC2)C3=O)on1 [Example 6, 5-[2-((S)-1-Cyclopropyl-ethyl)-7-methyl-1-oxo-2,3-dihydro-1H-isoindol-5-yl]-isoxazole-3-carboxylic acid methylamide] | 110% | 510 nM | 17.5 µM (≈ 5.94 µg/mL) |  | 23000 nM
CC(C)N1Cc2cc(-c3cc(C(=O)NC4CCCC4)no3)cc(Cl)c2C1=O [Example 14, 5-(7-Chloro-2-isopropyl-1-oxo-2,3-dihydro-1H-isoindol-5-yl)-isoxazole-3-carboxylic acid cyclopentylamide] | 97% | 60 nM | 3.53 µM (≈ 1.37 µg/mL) |  | 19000 nM
C[C@@H](C1CC1)N1Cc2cc(-c3cc(C(N)=O)no3)cc(Cl)c2C1=O [Example 7, 5-[7-Chloro-2-((S)-1-cyclopropyl-ethyl)-1-oxo-2,3-dihydro-1H-isoindol-5-yl]-isoxazole-3-carboxylic acid amide] | 139% | 230 nM | 16.6 µM (≈ 5.74 µg/mL) |  | > 33000 nM
Cc1cc(-c2cc(C(N)=O)no2)cc2c1C(=O)N([C@@H](C)C1CC1)C2 [Example 4, 5-[2-((S)-1-Cyclopropyl-ethyl)-7-methyl-1-oxo-2,3-dihydro-1H-isoindol-5-yl]-isoxazole-3-carboxylic acid amide] | 130% | 150 nM | 9.53 µM (≈ 3.1 µg/mL) |  | > 33000 nM
CC(C)N1Cc2cc(-c3cc(C(=O)N4CCCC4)no3)cc(Cl)c2C1=O [Example 9, 7-Chloro-2-isopropyl-5-[3-(pyrrolidine-1-carbonyl)-isoxazol-5-yl]-2,3-dihydro-isoindol-1-one] | 101% | 37 nM | 3.57 µM (≈ 1.33 µg/mL) |  | > 33000 nM
Cc1cc(-c2cc(C(=O)N(C)CCO)no2)cc2c1C(=O)N([C@@H](C)C1CC1)C2 [Example 13, 5-[2-((S)-1-Cyclopropyl-ethyl)-7-methyl-1-oxo-2,3-dihydro-1H-isoindol-5-yl]-isoxazole-3-carboxylic acid (2-hydroxy-ethyl)-methyl-amide] | 78% | 479 nM | 153 µM (≈ 58.7 µg/mL) |  | > 33000 nM
CNC(=O)c1cc(-c2cc(Cl)c3c(c2)CN([C@@H](C)C2CC2)C3=O)on1 [Example 2, 5-(7-chloro-2-((S)-1-cyclopropylethyl)-1-oxo-2,3-dihydro-1H-isoindolin-5-yl)-N-methylisoxazole-3-carboxamide] | 114% | 600 nM | 6.82 µM (≈ 2.45 µg/mL) | 212.3 °C | 21000 nM
Cc1cc(-c2cc(C(=O)N(C)C(C)C)no2)cc2c1C(=O)N([C@@H](C)C1CC1)C2 [Example 12, 5-[2-((S)-1-Cyclopropyl-ethyl)-7-methyl-1-oxo-2,3-dihydro-1H-isoindol-5-yl]-isoxazole-3-carboxylic acid isopropyl-methyl-amide] | 100% | 36 nM | 11.2 µM (≈ 4.27 µg/mL) |  | > 33000 nM
C[C@@H](C1CC1)N1Cc2cc(-c3cc(C(=O)N(C)C)no3)cc(Cl)c2C1=O [Example 1, 5-(7-chloro-2-((S)-1-cyclopropylethyl)-1-oxo-2,3-dihydro-1H-isoindolin-5-yl)-N,N-dimethylisoxazole-3-carboxamide] | 127% | 64 nM | 33.4 µM (≈ 12.5 µg/mL) | 143.5 °C | > 33000 nM
Cc1cc(-c2cc(C(=O)N(C)C)no2)cc2c1C(=O)N(C(C)C)C2 [Example 5, 5-(2-Isopropyl-7-methyl-1-oxo-2,3-dihydro-1H-isoindol-5-yl)-isoxazole-3-carboxylic acid dimethylamide] | 67% | 425 nM | 19.2 µM (≈ 6.29 µg/mL) |  | > 33000 nM
Cc1cc(-c2cc(C(=O)N(C)C)no2)cc2c1C(=O)N([C@@H](C)C(F)(F)F)C2 [Example 11, 5-[7-M ethyl-1-oxo-2-((S)-2,2,2-trifluoro-1-methyl-ethyl)-2,3-dihydro-1H-isoindol-5-yl]-isoxazole-3-carboxylic acid dimethylamide] | 114% | 66 nM | 4.35 µM (≈ 1.66 µg/mL) |  | > 33000 nM
CC(C)N1Cc2cc(-c3cc(C(N)=O)no3)cc(Cl)c2C1=O [Example 3] | 117% | 214 nM | 21.4 µM (≈ 6.84 µg/mL) |  | > 33000 nM
CC(C)N1Cc2cc(-c3cc(C(=O)N(C)CCO)no3)cc(Cl)c2C1=O [Example 10, 5-(7-Chloro-2-isopropyl-1-oxo-2,3-dihydro-1H-isoindol-5-yl)-isoxazole-3-carboxylic acid (2-hydroxy-ethyl)-methyl-amide] | 103% | 618 nM | 54.1 µM (≈ 20.4 µg/mL) |  | > 33000 nM
Cc1cc(-c2cc(C(=O)N(C)C)no2)cc2c1C(=O)N([C@@H](C)C1CC1)C2 [Example 8, 5-[2-((S)-1-Cyclopropyl-ethyl)-7-methyl-1-oxo-2,3-dihydro-1H-isoindol-5-yl]-isoxazole-3-carboxylic acid dimethylamide] | 123% | 115 nM | 31.1 µM (≈ 11 µg/mL) |  | > 33000 nM

More lines, main results first:

Emax (human mGluR2) | EC50 (human mGluR2) | solubility at 24 h [1] | melting point | Structure (SMILES) | IC50 (hERG ion channel)
109% | 56 nM | 4.65 µM (≈ 1.87 µg/mL) |  | CC(C)N(C)C(=O)c1cc(-c2cc(Cl)c3c(c2)CN([C@@H](C)C2CC2)C3=O)on1 [Example 18, 5-[7-Chloro-2-((S)-1-cyclopropyl-ethyl)-1-oxo-2,3-dihydro-1H-isoindol-5-yl]-isoxazole-3-carboxylic acid isopropyl-methyl-amide] | > 33000 nM
139% | 84 nM | 15.5 µM (≈ 6.23 µg/mL) |  | C[C@H](N1Cc2cc(-c3cc(C(=O)N(C)C)no3)cc(Cl)c2C1=O)C(F)(F)F [Example 17, 5-[7-Chloro-1-oxo-2-((S)-2,2,2-trifluoro-1-methyl-ethyl)-2,3-dihydro-1H-isoindol-5-yl]-isoxazole-3-carboxylic acid dimethylamide] | > 33000 nM
122% | 85 nM | 5.74 µM (≈ 2.39 µg/mL) |  | C[C@@H](C1CC1)N1Cc2cc(-c3cc(C(=O)N4CCOCC4)no3)cc(Cl)c2C1=O [Example 20, 7-Chloro-2-((S)-1-cyclopropyl-ethyl)-5-[3-(morpholine-4-carbonyl)-isoxazol-5-yl]-2,3-dihydro-isoindol-1-one] | > 33000 nM
79% | 664 nM | 435 µM (≈ 172 µg/mL) |  | Cc1cc(-c2cc(C(=O)N3CCNCC3)no2)cc2c1C(=O)N([C@@H](C)C1CC1)C2 [Example 16, 2-((S)-1-Cyclopropyl-ethyl)-7-methyl-5-[3-(piperazine-1-carbonyl)-isoxazol-5-yl]-2,3-dihydro-isoindol-1-one] | > 33000 nM
100% | 530 nM | 66.3 µM (≈ 25.8 µg/mL) |  | CC(C)N1Cc2cc(-c3cc(C(=O)N4CCOCC4)no3)cc(Cl)c2C1=O [Example 15, 7-Chloro-2-isopropyl-5-[3-(morpholine-4-carbonyl)-isoxazol-5-yl]-2,3-dihydro-isoindol-1-one] | > 33000 nM
141% | 443 nM | 273 µM (≈ 110 µg/mL) |  | C[C@@H](C1CC1)N1Cc2cc(-c3cc(C(=O)N(C)CCO)no3)cc(Cl)c2C1=O [Example 19, 5-[7-Chloro-2-((S)-1-cyclopropyl-ethyl)-1-oxo-2,3-dihydro-1H-isoindol-5-yl]-isoxazole-3-carboxylic acid (2-hydroxy-ethyl)-methyl-amide] | > 33000 nM
106% | 514 nM | 9.32 µM (≈ 4.14 µg/mL) |  | C[C@H](N1Cc2cc(-c3cc(C(=O)N4CCOCC4)no3)cc(Cl)c2C1=O)C(F)(F)F [Example 21, 7-Chloro-5-[3-(morpholine-4-carbonyl)-isoxazol-5-yl]-2-((S)-2,2,2-trifluoro-1-methyl-ethyl)-2,3-dihydro-isoindol-1-one] | > 33000 nM
